The term IC50 denotes the concentration at which inhibition is half-maximal. The term EC50 denotes the concentration that produces a half-maximal response. The term Kd denotes the constant that tells how readily two partners part at equilibrium. Low values mean tighter binding, high ones weaker binding.

Assay [1] deals with BCL6 reporter construct in SuDHL4-3×BCL6-TK-Luc cells. Description: Cell-based luciferase assay (BCL6 reporter). The following applies: 48 h, read-out: Luc IC50. An outline of the steps: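 SuDHL4 cells stably carrying a 3×BCL6-site TK-promoter firefly luciferase reporter, 15,000 cells/well, dosed over 10 concentrations (top 10 μM) and cultured two days at 37° C, 5% CO2. Luciferase luminescence read after room-temperature equilibration with neolite reagent.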

For a further assay, the system named is Karpas422 cells. The assay is described as follows: Tumor cell growth inhibition assay. The following applies: Homo sapiens, KARPAS-422, 144 h, read-out: GI Karpas EC50. The assay is classed as cell-based. In short, it runs like this:
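Karpas422 cells were dosed over a 10-point concentration range (top 5 μM) and grown 6 days at 37 °C, 5% CO2, in Alpha-MEM with 10% FBS. Viability was read as ATPlite luminescence.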

In assay [2] the target is BCL6 BTB domain (biotin-thrombin-BCL6 amino acids 1-129) (Homo sapiens (Human), UniProt P41182). Description: Surface Plasmon Resonance (SPR) assay. The assay is classed as binding. Conditions: Biacore T200, single cycle kinetic analysis. As to the method:
Surface Plasmon Resonance (SPR) Assay
SPR studies were performed using a Biacore™ T200 instrument (GE Health Sciences Inc.). […] The Biacore flow rate was set at 100 μl/min. […] Curve fitting and KD calculations were performed with the Biacore T200 Evaluation software (GE Health Sciences Inc).

Setting [3] is: SuDHL4-3×BCL6-TK-Luc cells, two days.
[4] abbreviates: Karpas422 cells, six days, ATPlite.

Like-named read-outs stand apart in the source and are kept apart here.

Consider `C[C@H]1CN(C)CCN1c1cc(NC(=O)Cn2cc(-c3cc(C(N)=O)c(O)c4c3OCO4)c3c(=O)n4c(nc32)CC(C)(C)C4)c(Cl)c(F)n1` [I-92, (S)-7-(1-(2-((3-chloro-6-(2,4-dimethylpipera-zin-1-yl)-2-fluoro-pyridin-4-yl)amino)-2-oxoethyl)-7,7-dimethyl-4-oxo-4,6,7,8-tetra-hydro-1H-dipyrrolo [1,2-a:2′,3′-d]pyrimi-din-3-yl)-4-hydroxy-benzo[d][1,3]dioxole-5-carboxamide], for which, in assay [1] (setting [3]), the IC50 amounted to 12.4 nM. Also, the EC50 in the assay with Karpas422 cells (setting [4]) came out at 9.22 nM. Further, in assay [2], the Kd was found to be 0.87 nM.

`C[C@H]1CNCCN1c1cc(NC(=O)Cn2cc(-c3cc(F)c(O)c(C(N)=O)c3)c3c(=O)n4c(nc32)CCC4)c(Cl)c(F)n1` [I-93, (S)-5-(1-(2-((3-chloro-2-fluoro-6-(2-methyl-piperazin-1-yl)pyridin-4-yl)amino)-2-oxoethyl)-4-oxo-4,6,7,8-tetrahydro-1H-dipyrrolo[1,2-a:2′,3′-d]pyrimidin-3-yl)-3-fluoro-2-hydroxy-benzamide]: the IC50 in assay [1] (setting [3]) is 140 nM. The EC50 in the assay on Karpas422 cells (setting [4]) turned out to be 83.9 nM. In assay [2], this molecule yielded an equilibrium dissociation constant (Kd) of 1.79 nM.

On to `C[C@H]1CN(C)CCN1c1cc(NC(=O)Cn2cc(-c3cc(C(N)=O)c(O)c4c3OCO4)c3c(=O)n4c(nc32)COCC4)c(Cl)c(F)n1` [I-94, (S)-7-(1-(2-((3-chloro-6-(2,4-dimethylpipera-zin-1-yl)-2-fluoro-pyridin-4-yl)amino)-2-oxoethyl)-4-oxo-4,6,7,9-tetrahydro-1H-pyrrolo[2′,3′:4,5]pyri-mido[2,1-c][1,4]oxazin-3-yl)-4-hydroxybenzo [d][1,3]dioxole-5-carboxamide], for which, in assay [1] (setting [3]), the IC50 turned out to be 28.3 nM. In addition, the EC50 in the assay with Karpas422 cells (setting [4]) was 17.8 nM. Moreover, the Kd in assay [2] was found to be 1.33 nM.

With `COc1c(-c2cn(CC(=O)Nc3cc(N4CCN(C)C[C@@H]4C)nc(F)c3Cl)c3nc4n(c(=O)c23)CCC4)cc(C(N)=O)c(O)c1Cl` [I-95, (S)-3-chloro-5-(1-(2-((3-chloro-6-(2,4-dimethylpiperazin-1-yl)-2-fluoropyridin-4-yl)amino)-2-oxo-ethyl)-4-oxo-4,6,7,8-tetrahydro-1H-dipyrrolo[1,2-a:2′,3′-d]pyrimidin-3-yl)-2-hydroxy-4-methoxy-benzamide], the IC50 in assay [1] came to 993 nM. Also, the EC50 in the assay with Karpas422 cells came to 879 nM. The same molecule showed a Kd in assay [2] of 450 nM.

As to `C[C@H]1CNCCN1c1cc(NC(=O)Cn2cc(-c3cc(C(N)=O)c(O)c4c3OCO4)c3c(=O)n4c(nc32)CC(C)(C)C4)c(Cl)c(F)n1` [I-96, (S)-7-(1-(2-((3-chloro-2-fluoro-6-(2-methyl-piperazin-1-yl)pyridin-4-yl)amino)-2-oxo-ethyl)-7,7-dimethyl-4-oxo-4,6,7,8-tetrahydro-1H-dipyrrolo[1,2-a:2′,3′-d]pyrimidin-3-yl)-4-hydroxybenzo[d][1,3] dioxole-5-carboxamide], in assay [1], the IC50 was determined as 17.5 nM. The EC50 with Karpas422 cells is 14.2 nM. This molecule also registered a Kd in assay [2] of 0.96 nM.

Turning to `C[C@@H]1CN(C)C[C@H](C)N1c1cc(NC(=O)Cn2cc(-c3cc(C(N)=O)c(O)c(F)c3F)c3c(=O)n4c(nc32)CCC4)c(Cl)c(F)n1` [I-97, 5-(1-(2-((3-chloro-2-fluoro-6-((2R,6S)-2,4,6-trimethylpiperazin-1-yl)pyridin-4-yl)amino)-2-oxoethyl)-4-oxo-4,6,7,8-tetrahydro-1H-dipyrrolo[1,2-a:2′,3′-d]pyrimidin-3-yl)-3,4-difluoro-2-hydroxy-benzamide], the IC50 in assay [1] was determined as 63.5 nM. The EC50 in the assay on Karpas422 cells stood at 70.9 nM. The affinity in assay [2], expressed as Kd, was 11.9 nM.

As for `C[C@@H]1CN(C)C[C@H](C)N1c1cc(NC(=O)Cn2cc(-c3cc(C(N)=O)c(O)c4c3OCO4)c3c(=O)n4c(nc32)CCC4)c(Cl)c(F)n1` [I-98, 7-(1-(2-((3-chloro-2-fluoro-6-((2R,6S)-2,4,6-trimethylpiperazin-1-yl)pyridin-4-yl)amino)-2-oxoethyl)-4-oxo-4,6,7,8-tetrahydro-1H-dipyrrolo [1,2-a:2′,3′-d]pyrimidin-3-yl)-4-hydroxybenzo [d][1,3]dioxole-5-carboxamide], the IC50 in assay [1] came out at 8.16 nM. For the same molecule, the EC50 in the assay on Karpas422 cells was found to be 8.42 nM. This molecule also showed a Kd in assay [2] of 0.96 nM.
